Experimental data: the supplement of paper PMC10307832

Key:
Assay in all cases: relative viability (nuclei count vs DMSO), 5 days (fraction); higher = more cells survive
[1] = compound: C1/C(=C\C2=CC=CS2)/C(=O)/C(=C/C3=CC=CS3)/C1 + Cc1cc(Nc2cc(N3CCN(C)CC3)nc(Sc3ccc(NC(=O)C4CC4)cc3)n2)n[nH]1 [Tozasertib] (partner 0.1 µM)
Outline: (§1)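 Relative viability was taken as the ratio of nuclei in treated wells to nuclei in vehicle wells. Lung cancer cell lines in 1536-well plates received compounds by pin tool one day after seeding, either one drug alone or a fixed anchor-drug dose plus five library-drug doses (not always all listed) in √10 steps. Nuclei were counted on 4× images after 5 days of treatment, and values are medians of duplicate plates.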

[2] = compound: C1/C(=C\C2=CC=CS2)/C(=O)/C(=C/C3=CC=CS3)/C1 + O=C(CCCCCCC(=O)Nc1ccccc1)NO [Vorinostat] (partner 1 µM)
Outline: as §1

[3] = compound: C[C@]12O[C@H](C[C@]1(O)CO)n1c3ccccc3c3c4c(c5c6ccccc6n2c5c31)CNC4=O [Lestaurtinib] + N=C(N)NC(=N)NCCc1ccccc1 [Phenformin] (partner 250 µM)
Outline: as §1

TPCA-1 + Linsitinib = compound: C1=CC(=CC=C1C2=CC(=C(S2)NC(=O)N)C(=O)N)F [TPCA-1] + C[C@]1(O)C[C@@H](c2nc(-c3ccc4ccc(-c5ccccc5)nc4c3)c3c(N)nccn32)C1 [Linsitinib] (partner 1 µM)
Outline: as §1

Row | Cell Line | relative viability ([1]; first compound 0.2 µM) | relative viability ([1]; first compound 0.6325 µM) | relative viability ([1]; first compound 2 µM) | relative viability ([1]; first compound 6.325 µM) | relative viability ([1]; first compound 20 µM) | relative viability ([2]; first compound 0.2 µM) | relative viability ([2]; first compound 0.6325 µM) | relative viability ([2]; first compound 2 µM) | relative viability ([2]; first compound 6.325 µM) | relative viability ([2]; first compound 20 µM) | relative viability ([3]; first compound 0.005 µM) | relative viability ([3]; first compound 0.01581 µM) | relative viability ([3]; first compound 0.05 µM) | relative viability ([3]; first compound 0.1581 µM) | relative viability ([3]; first compound 0.5 µM) | relative viability (TPCA-1 + Linsitinib; first compound 0.04 µM) | relative viability (TPCA-1 + Linsitinib; first compound 0.1265 µM) | relative viability (TPCA-1 + Linsitinib; first compound 0.4 µM) | relative viability (TPCA-1 + Linsitinib; first compound 1.265 µM) | relative viability (TPCA-1 + Linsitinib; first compound 4 µM)
1 | LU99A | 0.287 | 0.284 | 0.266 | 0.267 | 0.301 | 0.461 | 0.475 | 0.462 | 0.441 | 0.387 | 0.819 | 0.76 | 0.627 | 0.438 | 0.315 | 0.486 | 0.45 | 0.513 | 0.341 | 0.306
2 | LXF-289 | 0.196 | 0.207 | 0.193 | 0.151 | 0.178 | 0.821 | 0.829 | 0.772 | 0.732 | 0.724 | 0.515 | 0.498 | 0.42 | 0.302 | 0.213 | 0.94 | 0.969 | 0.932 | 0.962 | 0.793
3 | NCI-H23 | 0.374 | 0.394 | 0.373 | 0.421 | 0.323 | 0.662 | 0.628 | 0.702 | 0.564 | 0.591 | 0.835 | 0.756 | 0.762 | 0.813 | 0.457 | 0.537 | 0.559 | 0.759 | 0.602 | 0.549
4 | NCI-H322M | 0.533 | 0.439 | 0.474 | 0.454 | 0.483 | 0.902 | 0.892 | 1.03 | 0.865 | 0.917 | 0.689 | 0.694 | 0.478 | 0.517 | 0.393 | 1.02 | 0.834 | 0.952 | 0.803 | 0.607
5 | NCI-H358 | 0.101 | 0.096 | 0.112 |  | 0.11 | 0.8 | 0.814 | 0.704 | 0.511 | 0.773 | 0.338 | 0.295 | 0.208 | 0.137 | 0.0849 | 0.902 | 0.557 | 0.691 | 0.487 | 0.339
6 | NCI-H441 | 0.657 | 0.614 | 0.613 | 0.631 | 0.528 | 0.863 | 0.676 | 0.683 | 0.743 | 0.78 | 0.885 | 0.854 | 0.533 | 0.767 | 0.555 | 0.669 | 0.287 | 0.569 | 0.328 | 0.188
7 | NCI-H460 | 0.377 | 0.438 | 0.401 | 0.323 | 0.321 | 0.859 | 0.724 | 0.783 | 0.398 | 0.635 | 0.583 | 0.533 | 0.401 | 0.307 | 0.0805 | 0.946 | 0.737 | 0.735 | 0.339 | 0.286
8 | NCI-H520 | 0.531 | 0.506 | 0.458 | 0.398 | 0.406 | 0.767 | 0.787 | 0.733 |  | 0.72 | 0.648 | 0.744 | 0.44 | 0.313 | 0.2 | 1.16 | 0.832 | 0.989 | 0.838 | 0.921
9 | NCI-H596 | 0.726 | 0.865 | 1.11 | 0.855 | 0.995 | 0.532 | 0.469 | 0.609 | 0.612 | 0.727 | 0.699 | 0.88 | 0.557 | 0.882 | 0.723 | 1.14 | 1.05 | 1.13 | 1.11 | 1.14
10 | NCI-H647 | 0.382 | 0.379 | 0.296 | 0.271 | 0.238 | 0.44 | 0.539 | 0.398 | 0.423 | 0.774 | 0.354 | 0.444 | 0.181 | 0.11 | 0.104 | 1.11 | 1.07 | 1.1 | 1.05 | 0.694
11 | NCI-H650 | 0.857 | 0.716 | 0.675 | 0.689 | 0.786 | 0.432 | 0.436 | 0.419 | 0.413 | 0.373 | 0.427 | 0.415 | 0.362 | 0.265 | 0.314 | 1.08 | 0.755 | 0.89 | 0.382 | 0.465
12 | NCI-H661 | 0.324 | 0.361 | 0.374 | 0.308 | 0.36 | 0.845 | 0.825 | 0.756 | 0.638 | 0.778 | 0.271 | 0.277 | 0.303 | 0.251 | 0.248 | 0.524 | 0.487 | 0.706 | 0.534 | 0.411
13 | NCI-H727 | 0.725 | 0.619 | 0.627 | 0.478 | 0.536 | 1.23 | 1.23 | 1.28 |  | 1.12 | 0.475 | 0.655 | 0.648 | 0.515 | 0.298 | 0.203 | 0.318 | 0.342 | 0.223 | 0.244
14 | NCI-H838 | 0.295 | 0.264 | 0.321 | 0.216 | 0.231 | 0.731 | 0.709 | 0.767 | 0.596 | 0.657 | 0.508 | 0.543 | 0.475 | 0.227 | 0.131 | 1.06 | 0.868 | 0.962 | 0.886 | 0.811
15 | NCI-H1355 | 0.565 | 0.577 | 0.603 | 0.562 | 0.48 | 0.664 | 0.627 | 0.705 | 0.598 | 0.587 | 0.455 | 0.465 | 0.374 | 0.391 | 0.263 | 0.99 | 0.709 | 0.737 | 0.711 | 0.667
16 | NCI-H1395 | 0.767 | 0.879 | 0.91 | 0.686 | 0.754 | 0.668 | 0.767 | 1.03 | 0.744 | 0.8 | 0.451 | 0.432 | 0.422 | 0.484 | 0.312 | 1.55 | 0.954 | 1.07 | 0.959 | 0.884
